Data from US20240383910A1, “SMALL MOLECULE BTK DEGRADERS AND METHODS OF USE THEREOF” (Baylor College of Medicine, priority 2023, published 2024).

Columns and labels:
BTK [1] = target: T1, BTK (Homo sapiens, UniProt Q06187); experiment: TR-FRET saturation binding assay of the BTK tracer
Experimental: To measure the binding affinities between PROTACs and BTK, a time-resolved fluorescence resonance energy transfer (TR-FRET) competition binding assay was developed. A BTK tracer was synthesized by conjugating an ibrutinib-based reversible noncovalent binder with the BODIPY-FL dye (FIG. 1). […] In the presence of the BTK tracer, competition assays were performed to measure the binding affinities between BTK and its inhibitors and PROTACs. […] The very weak BTK binding affinities for PS-RC-1, PS-RC-2, PS-RC-3 and PS-RC-4 explain their minimal BTK degradation effects in cells and further support that the observed growth inhibitory effect of PS-RC-1 in Mino cells is unrelated to the BTK pathway.
Target sequence in this assay (Q06187 whole entry, species assumed): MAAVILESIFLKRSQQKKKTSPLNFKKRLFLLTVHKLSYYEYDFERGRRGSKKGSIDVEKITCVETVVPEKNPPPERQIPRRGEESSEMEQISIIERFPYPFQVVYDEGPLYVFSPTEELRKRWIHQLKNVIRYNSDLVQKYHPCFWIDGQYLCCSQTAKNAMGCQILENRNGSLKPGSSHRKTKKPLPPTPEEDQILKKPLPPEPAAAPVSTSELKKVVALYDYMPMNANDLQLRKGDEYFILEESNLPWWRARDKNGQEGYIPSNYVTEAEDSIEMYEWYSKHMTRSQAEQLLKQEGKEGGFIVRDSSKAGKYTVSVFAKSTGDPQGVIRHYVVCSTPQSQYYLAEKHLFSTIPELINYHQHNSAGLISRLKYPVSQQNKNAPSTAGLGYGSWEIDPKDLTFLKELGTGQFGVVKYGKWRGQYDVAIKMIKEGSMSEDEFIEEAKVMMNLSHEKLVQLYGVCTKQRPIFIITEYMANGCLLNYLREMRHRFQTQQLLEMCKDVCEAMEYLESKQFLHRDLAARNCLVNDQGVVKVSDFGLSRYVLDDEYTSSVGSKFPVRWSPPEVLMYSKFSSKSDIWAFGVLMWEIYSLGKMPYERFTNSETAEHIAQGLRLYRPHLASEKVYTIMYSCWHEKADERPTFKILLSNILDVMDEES

GSPT1 = target: T2, GSPT1 (Homo sapiens, UniProt P15170+Q96SW2); experiment: Western blotting for GSPT1 in Mino cells; assay type: cell-based; conditions: up to 1000 nM, 24 h, Western blot
T2 construct: host or cells: Mino
Experimental: Panel a. […] Panel b. […] Panel c. […] Panel d-e. […] Panel g.
Mino cells were seeded into the wells of six-well plates at the density of 5×10^5 cells per mL in 2 mL of complete RPMI-1640 culture medium. After overnight adaptation, cells were treated with serially diluted compounds (from 1,000-1.6 nM, 5-fold dilution) for 24 hours. After treatment, whole cell lysates for immunoblotting were prepared by pelleting Mino cells at 4° C. and 200×g for 5 minutes. The resulting cell pellets were washed once with ice-cold PBS and lysed in 1×RIPA lysis buffer (Alfa Aesar, Cat. No. J62524) supplemented with protease and phosphatase inhibitor cocktail (Thermo Fisher, Cat. No. 78430). Lysates were centrifuged at 15,000×g for 10 min at 4° C. and protein concentrations were assessed using BCA assay (Pierce, Cat. No. 23225). Same amounts of protein (30 μg) for each sample were loaded onto sodium dodecyl sulfate-polyacrylamide gel, separated by electrophoresis (Bio-Rad) at 120 V for 1.5 h and transferred to PVDF membrane using a Transblot Turbo system (Bio-Rad). […] All Western blots were subsequently processed and quantified with Imager software ImageJ and protein level was normalized to the B-actin loading controls.

BTK [2] = target: T1, BTK; experiment: Western blotting for BTK in Mino cells; assay type: cell-based; set-up: host or cells: Mino; conditions: 24 h, Western blot
Experimental: Mino cells were seeded into the wells of six-well plates at the density of 5×10^5 cells per mL in 2 mL of complete RPMI-1640 culture medium. After overnight adaptation, cells were treated with serially diluted compounds (from 1,000-1.6 nM, 5-fold dilution) for 24 hours. After treatment, whole cell lysates for immunoblotting were prepared by pelleting Mino cells at 4° C. and 200×g for 5 minutes. The resulting cell pellets were washed once with ice-cold PBS and lysed in 1×RIPA lysis buffer (Alfa Aesar, Cat. No. J62524) supplemented with protease and phosphatase inhibitor cocktail (Thermo Fisher, Cat. No. 78430). Lysates were centrifuged at 15,000×g for 10 min at 4° C. and protein concentrations were assessed using BCA assay (Pierce, Cat. No. 23225). Same amounts of protein (30 μg) for each sample were loaded onto sodium dodecyl sulfate-polyacrylamide gel, separated by electrophoresis (Bio-Rad) at 120 V for 1.5 h and transferred to PVDF membrane using a Transblot Turbo system (Bio-Rad). After blocking for 1 h at room temperature in 1% BSA-TBST, the membranes were immunoblotted with the specified primary antibodies at the dilution of 1:1000 in TBST (Cell Signaling Technology: anti-BTK Cat. No. 8547, anti-IKZF1 Cat. No. 14859, anti-IKZF3 Cat. No. 15103, anti-β-actin Cat. No. 4570, Proteintech: anti-GSPT1, Cat. No. 10763-1-AP) overnight at 4° C. and the HRP-conjugated secondary antibodies (Cell Signaling, Cat. No. 7074, 1:1000 in TBST) for 1 h at room temperature. Imaging was performed using the ECL Prime chemiluminescent Western blot detection reagents (Kindle Biosciences, Cat. No. R1100) by visualization of the blots with an Imager (Kindle Biosciences, Cat. No. D1001). All Western blots were subsequently processed and quantified with Imager software ImageJ and protein level was normalized to the B-actin loading controls.
Target sequence in this assay (Q06187 whole entry): as the sequence (Q06187 whole entry, species assumed) above

BTK-nLuc fusion protein [3] = target: T3, BTK-nLuc fusion protein (Homo sapiens, UniProt Q06187+Q96SW2); experiment: BTK-nLuc endpoint degradation assay in HEK-293T cells; assay type: cell-based; conditions: HEK-293T cells stably expressing BTK-nLuc, 24 h
T3 construct: Addgene (vector) HsCD00514411; pLenti6.2-ccdB-Nanoluc 87078; host or cells: HEK-293T17
Experimental: (§1) DD-03-171 is a known BTK degrader and used as a positive control. Panel f: HEK-293T cells stably expressing a BTK-nLuc fusion protein were treated with indicated compounds (same as in a-e) for 24 h. The BTK degradation was determined by evaluating luminescence signals of NanoLuc.
(§2) The nanoluc activity was determined using the furimazine substrate (Promega, Cat. No. N1110). Briefly, after 4 h incubation of indicated compounds, cells were directly lysed by addition of 100 μL of nanoluciferase detection solution, containing lysis buffer and furimazine (1/50 dilution). For the 24-hour treatment group, the old medium was replaced with 100 μL fresh opti-MEM, followed by the addition of equal volume of lysis buffer plus furimazine (1/50 dilution).

BTK-nLuc fusion protein [4] = target: T4, BTK-nLuc fusion protein (Homo sapiens, UniProt Q06187); experiment: as above; assay type: cell-based; conditions: HEK-293T cells stably expressing BTK-nLuc, 24 h
T4 construct: Addgene (vector) HsCD00514411; pLenti6.2-ccdB-Nanoluc 87078; host or cells: HEK-293T17
Experimental: as §1, §2

BTK [5] = target: T1, BTK; experiment: BTK ligand competition assay in Ramos cells (Western blotting for BTK); assay type: cell-based; set-up: host or cells: Ramos; conditions: co-treated with 100 nM PS-2, 24 hours, PS2W at 50 μM
Target sequence in this assay (Q06187 whole entry): as the sequence (Q06187 whole entry, species assumed) above
Experimental: Ramos cells were incubated overnight, and then the indicated compounds were added and incubated for 24 hours, followed by Western blotting for BTK degradation.
Ramos cells were incubated overnight, and then the indicated compounds were added and incubated for 24 hours, followed by Western blotting for BTK degradation (FIG. 7).

T2 sequence (P15170 whole entry): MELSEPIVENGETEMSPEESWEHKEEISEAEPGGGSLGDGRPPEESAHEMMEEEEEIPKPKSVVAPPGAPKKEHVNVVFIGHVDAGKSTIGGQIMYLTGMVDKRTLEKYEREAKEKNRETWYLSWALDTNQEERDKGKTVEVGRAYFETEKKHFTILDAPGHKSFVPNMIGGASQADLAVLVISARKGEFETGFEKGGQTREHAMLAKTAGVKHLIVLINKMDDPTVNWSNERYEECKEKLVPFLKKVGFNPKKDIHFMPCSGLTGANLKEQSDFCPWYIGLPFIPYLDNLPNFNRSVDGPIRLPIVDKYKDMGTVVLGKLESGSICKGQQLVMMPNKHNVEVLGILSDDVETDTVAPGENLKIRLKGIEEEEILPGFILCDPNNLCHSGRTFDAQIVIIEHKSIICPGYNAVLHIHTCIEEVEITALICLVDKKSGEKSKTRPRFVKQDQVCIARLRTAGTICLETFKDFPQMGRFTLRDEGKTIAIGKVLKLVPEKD
T2 sequence (Q96SW2 whole entry): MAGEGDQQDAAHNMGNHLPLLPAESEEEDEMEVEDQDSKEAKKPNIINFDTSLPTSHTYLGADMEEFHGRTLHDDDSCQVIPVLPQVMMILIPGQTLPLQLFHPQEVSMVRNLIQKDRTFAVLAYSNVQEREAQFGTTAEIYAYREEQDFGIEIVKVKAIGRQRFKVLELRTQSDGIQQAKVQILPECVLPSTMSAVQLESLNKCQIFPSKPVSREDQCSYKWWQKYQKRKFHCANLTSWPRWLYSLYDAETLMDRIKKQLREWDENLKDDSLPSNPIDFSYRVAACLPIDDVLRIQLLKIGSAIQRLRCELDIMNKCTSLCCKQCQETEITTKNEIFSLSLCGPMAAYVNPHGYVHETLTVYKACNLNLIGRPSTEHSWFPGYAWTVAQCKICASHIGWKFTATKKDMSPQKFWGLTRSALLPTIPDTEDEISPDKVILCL
T2 sequence (Q16531 whole entry partner): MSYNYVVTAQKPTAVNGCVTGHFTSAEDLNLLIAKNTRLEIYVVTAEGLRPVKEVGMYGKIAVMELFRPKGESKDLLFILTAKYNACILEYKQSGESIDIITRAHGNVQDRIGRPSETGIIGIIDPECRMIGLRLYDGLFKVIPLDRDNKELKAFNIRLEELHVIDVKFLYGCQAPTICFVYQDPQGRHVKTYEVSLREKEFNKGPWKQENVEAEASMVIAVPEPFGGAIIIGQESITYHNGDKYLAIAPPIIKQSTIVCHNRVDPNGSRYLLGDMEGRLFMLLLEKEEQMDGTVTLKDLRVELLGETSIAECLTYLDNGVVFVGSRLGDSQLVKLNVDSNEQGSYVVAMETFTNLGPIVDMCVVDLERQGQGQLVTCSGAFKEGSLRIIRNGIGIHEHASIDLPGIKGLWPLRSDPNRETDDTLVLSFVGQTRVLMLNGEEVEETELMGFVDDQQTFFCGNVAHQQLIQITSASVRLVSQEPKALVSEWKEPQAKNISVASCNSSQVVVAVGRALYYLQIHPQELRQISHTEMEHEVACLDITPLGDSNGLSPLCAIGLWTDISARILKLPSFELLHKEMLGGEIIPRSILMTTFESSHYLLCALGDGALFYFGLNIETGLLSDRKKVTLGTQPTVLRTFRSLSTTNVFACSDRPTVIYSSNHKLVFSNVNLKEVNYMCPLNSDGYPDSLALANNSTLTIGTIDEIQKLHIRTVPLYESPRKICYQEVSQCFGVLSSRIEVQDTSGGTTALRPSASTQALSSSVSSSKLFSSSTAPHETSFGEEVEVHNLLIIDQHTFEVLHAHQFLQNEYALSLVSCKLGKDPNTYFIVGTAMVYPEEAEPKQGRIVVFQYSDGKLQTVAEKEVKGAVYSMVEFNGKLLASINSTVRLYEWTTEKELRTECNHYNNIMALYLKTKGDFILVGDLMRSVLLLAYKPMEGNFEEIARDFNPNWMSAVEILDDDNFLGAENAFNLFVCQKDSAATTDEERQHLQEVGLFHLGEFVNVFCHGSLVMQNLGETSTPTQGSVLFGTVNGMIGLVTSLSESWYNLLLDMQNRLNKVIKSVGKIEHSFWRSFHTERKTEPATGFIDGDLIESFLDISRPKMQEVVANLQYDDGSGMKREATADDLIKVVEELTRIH
T3 sequence (Q06187 whole entry, the tested form may be a part): as the sequence (Q06187 whole entry, species assumed) above
T3 sequence (Q96SW2 whole entry, the tested form may be a part): as the sequence (Q96SW2 whole entry) above
T3 sequence (Q16531 whole entry partner, the tested form may be a part): as the sequence (Q16531 whole entry partner) above
T4 sequence (Q06187 whole entry, the tested form may be a part): as the sequence (Q06187 whole entry, species assumed) above
T4 sequence (Q96SW2 whole entry, further chain, the tested form may be a part): as the sequence (Q96SW2 whole entry) above
T4 sequence (Q16531 whole entry partner, the tested form may be a part): as the sequence (Q16531 whole entry partner) above

CC1=CC(C)=[N+]2C1=Cc1ccc(CCC(=O)NCCCN(C)CCCC(=O)N3CCC[C@@H](n4nc(-c5ccc(Oc6ccccc6)cc5)c5c(N)ncnc54)C3)n1[B-]2(F)F [BTK tracer]
Kd (BTK [1]): 155 nM

Cc1ccc(NC(=O)NCc2ccc3c(c2)CN(C2CCC(=O)NC2=O)C3=O)cc1Cl (centres unmarked) [CC-885, reference compound]
GSPT1 degradation (result in words) (GSPT1): potent GSPT1 degrader

Cc1c(NC(=O)c2ccc(C(C)(C)C)cc2)cccc1-c1cn(C)c(=O)c(Nc2ccc(C(=O)N3CCN(CCCCCCNC(=O)CNc4cccc5c4C(=O)N(C4CCC(=O)NC4=O)C5=O)CC3)cc2)n1 (centres unmarked) [DD-03-171, reference compound]
BTK WB Dmax (BTK [2]): 99% | DC50 (BTK [2]; read-out: BTK WB DC50): 0.9 nM | BTK degradation (result in words) (BTK [2]; up to 1000 nM): potently induces BTK degradation | DC50 (BTK-nLuc fusion protein [3]): 25.9 nM | BTK-nLuc Dmax (BTK-nLuc fusion protein [4]): 96%

CN1CCN(c2ccc(Nc3nccc(Oc4ccccc4)n3)cc2)CC1 [PS2W]
competition with PS-2 induced BTK degradation (BTK ligand) (BTK [5]): cannot completely compete out
